Reference: patent US20240092831A1, “Proteasome Inhibitors” (Mayo Foundation for Medical Education and Research, priority 2019, published 2024)
Where two headings read alike, the source gives them in different places. Values belong to the compound of their own block, whether it stands above or below them. Non-standard residues stand in square brackets, D forms with d. Residues, ends and D or L forms follow the SMILES beside them. ξ: configuration not given here. *: point of attachment. Hydrocinnamoyl = O=C(CCc1ccccc1)*; ξF = NC(Cc1ccccc1)C(=O)O; Cbz = O=C(OCc1ccccc1)*

Tests used:
[1] = tested on: bortezomib sensitive cells; experiment: Cell viability (MTS/CellTiter Glo), bortezomib sensitive multiple myeloma cells; format: cell-based
Experimental: (§1) Methods: CD138+ cells from multiple myeloma patients, bortezomib-sensitive multiple myeloma cell lines (OPM2, KMS11 and U266) and their isogenic bortezomib resistant subclones were used in experiments. Fluorogenic peptide substrates were used to measure β-subunit-specific enzymatic activity. Gene disruption was conducted using 2 different shRNA hairpins for PSMB5 (β5) and PSMB9 ([…]). […] HT12v4 gene expression array and NanoString mRNA quantification were used for gene expression profiling (GEP), followed by qPCR for confirmation. Novel dual β5-β1i proteasome inhibitors were synthesized and tested in vitro. Apoptosis was determined by annexin-V/[…] staining and MTS/CellTiter Glo assay used to determine cell viability.

[2] = tested on: bortezomib resistant cells; experiment: Cell viability (MTS/CellTiter Glo), bortezomib resistant multiple myeloma cells; format: cell-based
Experimental: as §1

β5 = experiment: Proteasome β5 enzyme activity in WM cell lines (fluorogenic substrate); format: cell-based; settings: comparator
Experimental: (§2) Methodology: BWCM.1, MWCL-1 and RPCI-WM1 and isogenic PI-resistant subclones were used in experiments. WM cell viability determined by 72 hour CellTiter Glo assay. Proteasome enzyme activity was estimated by fluorogenic substrates specific for β5 and β1. Protein expression was determined by western blotting. Apoptosis was assessed by annexin-V/PI staining.
Results: Chemical compounds capable of inhibiting enzymatic activity of both β5 and β1 were prepared. […] (FIGS. 2B, 2C). […] In vitro proteasome enzyme activity at the β5 and β1 subunits was examined in all WM cell lines +/−Compound 1 (with bortezomib serving as a comparator).

β1 = target: T1, β1 (Homo sapiens, UniProt P28065); experiment: Proteasome β1 enzyme activity in WM cell lines (fluorogenic substrate); format: cell-based; settings: comparator
T1 construct: In vitro proteasome enzyme activity at the β5 and β1 subunits was examined in all WM cell lines +/−Compound 1; endogenous in cells; host or cells: BWCM.1 (BCWM.1), MWCL-1, RPCI-WM1 and isogenic bortezomib/PI-resistant subclones
Experimental: as §2

BCWM.1 = experiment: MTS assay, BCWM.1; format: cell-based; settings: BCWM1
BCWM.1/BR = experiment: MTS assay, BCWM.1/BR; format: cell-based; settings: BCWM1, bortezomib-resistant subclone
MWCL.1 = experiment: MTS assay, MWCL.1; format: cell-based
MWCL.1/BR = experiment: MTS assay, MWCL.1/BR; format: cell-based; settings: bortezomib-resistant subclone
RPCI.WM1 = experiment: MTS assay, RPCI.WM1; format: cell-based
RPCI.WM1/BR = experiment: MTS assay, RPCI.WM1/BR; format: cell-based; settings: bortezomib-resistant subclone
B1i = target: T2, B1i (Homo sapiens, UniProt P28065); experiment: In vitro enzymatic potency of dual-β5/β1i inhibitors (Table 2); format: biochemical
T2 construct: endogenous in cells; host or cells: OPM2 and OPM2/BR multiple myeloma cell lines
Experimental: as §1
The results were shown for multiple myeloma cell lines (OPM2, OPM2/BR).

IC50 [1]: 4 nM | IC50 ([2]; bortezomib resistant cells, before PSMB9 downregulation, read-out: IC50 (shift from)): 235 nM | IC50 ([2]; bortezomib resistant cells, read-out: Bortezomib IC50): 284 nM | IC50 ([2]; bortezomib resistant-PSMB9 shRNA transfected cells, read-out: IC50 (shift to)): 108 nM | effect on β1 activity (β1): did not decrease β1 activity
Structure (SMILES): CC(C)C[C@H](NC(=O)[C@H](Cc1ccccc1)NC(=O)c1cnccn1)B(O)O [Bortezomib, bortezomib]
effect on β5 enzymatic function (β5): only β5 enzymatic function | IC50 (BCWM.1): 8.6 nM | IC50 (BCWM.1/BR): 17.6 nM | IC50 (MWCL.1): 10.2 nM | IC50 (MWCL.1/BR): 16.7 nM | IC50 (RPCI.WM1): 3 nM | IC50 (RPCI.WM1/BR): 114 nM

IC50 (B1i; first column of Table 2): 1000 nM | IC50 (B1i; second column of Table 2): 5000 nM
Structure (SMILES): CC(C)[C@H](NC(=O)CCc1ccccc1)C(=O)NC(C=O)Cc1ccccc1 (stereo partly shown) [Compound 1-2] (Hydrocinnamoyl-Val-[ξF]-aldehyde)

IC50 (B1i; first column of Table 2): 1000 nM | IC50 (B1i; second column of Table 2): 5000 nM
Structure (SMILES): CC(C)C[C@H](NC(=O)OCc1ccccc1)C(=O)NC(C=O)Cc1ccccc1 (stereo partly drawn) [Compound 6-2] (Cbz-Leu-[ξF]-aldehyde)

IC50 (B1i; first column of Table 2): 5000 nM | IC50 (B1i; second column of Table 2): 5000 nM
Structure (SMILES): O=CC(Cc1ccccc1)NC(=O)[C@H](Cc1ccccc1)NC(=O)OCc1ccccc1 (stereo partly drawn) [Compound 7-2] (Cbz-Phe-[ξF]-aldehyde)

IC50 (B1i; first column of Table 2): 5000 nM | IC50 (B1i; second column of Table 2): 5000 nM
Structure (SMILES): CC(C)[C@H](NC(=O)c1ccncc1)C(=O)NC(C=O)Cc1ccccc1 (stereo partly shown) [Compound 12-2]

IC50 (B1i; first column of Table 2): > 10000 nM | IC50 (B1i; second column of Table 2): 5000 nM
Structure (SMILES): CCOC(=O)/C(C#N)=C/C(Cc1ccccc1)NC(=O)[C@@H](NC(=O)OCc1ccccc1)C(C)C (stereo partly shown) [Compound 15-2]
